Source: ChEMBL document CHEMBL5375999, “Discovery of a Dual Tubulin and Neuropilin-1 (NRP1) Inhibitor with Potent In Vivo Anti-Tumor Activity via Pharmacophore-based Docking Screening, Structure Optimization, and Biological Evaluation” (J Med Chem, 2023)
Calls of active or inactive are those of the source. No cut-off for these calls is given here.

Legend:
Tubulin (Homo sapiens) [1] = target: T1, Tubulin (Homo sapiens) (UniProt P68371+Q9H4B7+P0DPH7+P68366+Q13509+Q71U36+P04350+Q3ZCM7+P07437+P68363+Q9BQE3+Q6PEY2+Q13885+Q9BVA1+Q9BUF5); assay: Inhibition of tubulin polymerization in human PC-3 cells assessed as increase in microtubule dispersion incubated for 48 hrs by immunofluorescence assay; type: cell-based; conditions: dose 0.1-12.5 µM
[2] = Toxicity in BALB/c mouse xenografted with human PC-3 cells assessed as change in kidney morphology at 5 to 10 mg/kg, ip administered every 4 days for 20 days by H and E staining based inverted microscopic assay; type: organism-based; conditions: in vivo, 480 h, dose 5-10 mg/kg, time 20 day
PC-3 [3] = assay: Induction of cell cycle arrest in human PC-3 cells assessed as accumulation of cells at G2/M phase at 0.5 uM by flow cytometry analysis (reference value: 3.24%); type: functional
[4] = target: RAC-beta serine/threonine-protein kinase (Homo sapiens, UniProt P31751); assay: Inhibition of AKT2 (unknown origin)
PC-3 [5] = assay: Antiangiogenesis activity in human PC-3 cells assessed as reduction in network formation by interconnected cells at 0.1 to 12.5 uM incubated for 8 to 15 hrs by matrigel based inverted microscopic analysis; type: functional, cell-based; conditions: dose 0.1-12.5 µM, time 8-15 hrs
Activin receptor type-1 = Activin receptor type-1 (Homo sapiens, UniProt Q04771); assay: Inhibition of ACVR1 (unknown origin)
PC-3 [6] = assay: Induction of cell cycle arrest in human PC-3 cells assessed as G0/G1 phase cells at 0.1 uM by flow cytometry analysis (reference value: 94.76%); type: functional
Neuropilin-2 = Neuropilin-2 (Homo sapiens, UniProt O60462); assay: Inhibition of NRP2 (unknown origin)
[7] = target: Tyrosine-protein kinase Fgr (Homo sapiens, UniProt P09769); assay: Inhibition of FGR (unknown origin)
[8] = target: Cyclin-dependent kinase 8 (Homo sapiens, UniProt P49336); assay: Inhibition of CDK8 (unknown origin)
PC-3 [9] = assay: Antitumor activity against human PC-3 cells xenografted in BALB/c nude mouse assessed as tumor disappearance at 10 mg/kg, ip administered every 4 days for 20 days; type: functional, organism-based; conditions: time 20.0 day
[10] = Tmax in Sprague-Dawley rat at 1.5 mg/kg, po measured upto 24 hrs by LC-MS/MS analysis; type: ADME, organism-based; conditions: in vivo
[11] = target: RAF proto-oncogene serine/threonine-protein kinase (Homo sapiens, UniProt P04049); assay: Inhibition of RAF1 (unknown origin)
[12] = target: Mitogen-activated protein kinase 8 (Homo sapiens, UniProt P45983); assay: Inhibition of JNK1 (unknown origin)
[13] = target: Tyrosine-protein kinase Lck (Homo sapiens, UniProt P06239); assay: Inhibition of LCK (unknown origin)
PC-3M = assay: Cytotoxicity against human PC-3M cells assessed as inhibition of cell viability incubated for 48 hrs by MTT assay; type: functional, cell-based
PC-3 [14] = assay: Induction of apoptosis in human PC-3 cells assessed as necrotic cells at 12.5 uM by Annexin-V FITC staining based flow cytometry analysis (reference value: 0.059%); type: functional
[15] = target: Mitogen-activated protein kinase 3 (Homo sapiens, UniProt P27361); assay: Inhibition of ERK1 (unknown origin)
PC-3 [16] = assay: Induction of apoptosis in human PC-3 cells assessed as early apoptotic cells at 0.1 uM by Annexin-V FITC staining based flow cytometry analysis (reference value: 1.51%); type: functional
PC-3 [17] = assay: Antiangiogenesis activity in human PC-3 cells assessed as inhibition of tube formation incubated for 8 to 15 hrs by matrigel based inverted microscopic analysis; type: functional, cell-based; conditions: dose 0.1-12.5 µM, time 8-15 hrs
PC-3 [18] = assay: Induction of apoptosis in human PC-3 cells assessed as viable cells at 2.5 uM by Annexin-V FITC staining based flow cytometry analysis (reference value: 96.8%); type: functional; conditions: read-out: Activity
HUVEC = assay: Antiinvasive activity against HUVECs at 0.1 to 12.5 uM incubated for 24 hrs by crystal violet staining based optical microscopic analysis; type: functional, cell-based; conditions: Homo sapiens, dose 0.1-12.5 µM
[19] = target: Phosphatidylinositol 4,5-bisphosphate 3-kinase catalytic subunit alpha isoform (Homo sapiens, UniProt P42336); assay: Inhibition of PIK3CA (unknown origin)
Tubulin (Homo sapiens) [20] = target: T1, Tubulin (Homo sapiens); assay: Inhibition of tubulin polymerization in human PC-3 cells assessed as microtubule destruction at 2.5 to 12.5 uM incubated for 48 hrs by immunofluorescence assay; type: cell-based; conditions: dose 2.5-12.5 µM
PC-3 [21] = assay: Antiangiogenesis activity in human PC-3 cells assessed as appearance of scattered cells at 0.1 to 12.5 uM incubated for 8 to 15 hrs by matrigel based inverted microscopic analysis; type: functional, cell-based; conditions: dose 0.1-12.5 µM, time 8-15 hrs
[22] = Cmax in Sprague-Dawley rat at 1.5 mg/kg, po measured upto 24 hrs by LC-MS/MS analysis; type: ADME, organism-based; parameters: time < 24 hrs, dose 1.5 mg/kg, route po; conditions: in vivo
[23] = target: RAC-alpha serine/threonine-protein kinase (Homo sapiens, UniProt P31749); assay: Inhibition of AKT1 (unknown origin)
PC-3 [24] = assay: Induction of apoptosis in human PC-3 cells assessed as late apoptotic cells at 0.1 uM by Annexin-V FITC staining based flow cytometry analysis (reference value: 1.67%); type: functional
PC-3 [25] = assay: Induction of cell cycle arrest in human PC-3 cells assessed as increase in p-cdc2 expression at 0.5 to 12.5 uM incubated for 48 hrs by Western blotting analysis; type: functional, cell-based; conditions: dose 0.5-12.5 µM
[26] = target: Serine/threonine-protein kinase pim-1 (Homo sapiens, UniProt P11309); assay: Inhibition of PIM1 (unknown origin)
VCaP = assay: Cytotoxicity against human VCaP cells assessed as inhibition of cell viability incubated for 48 hrs by MTT assay; type: functional, cell-based
PC-3 [27] = assay: Antiproliferative activity against human PC-3 cells assessed as inhibition of cell growth at 0.1 to 12.5 uM incubated for 48 hrs by EdU incorporation based assay; type: functional; conditions: dose 0.1-12.5 µM
[28] = target: Serine/threonine-protein kinase 4 (Homo sapiens, UniProt Q13043); assay: Inhibition of MST1 (unknown origin)
[29] = target: Cyclin-dependent kinase 2 (Homo sapiens, UniProt P24941); assay: Inhibition of CDK2 (unknown origin)
[30] = target: Cyclin-dependent kinase 7 (Homo sapiens, UniProt P50613); assay: Inhibition of CDK7 (unknown origin)
[31] = target: Epidermal growth factor receptor (Homo sapiens, UniProt P00533); assay: Inhibition of EGFR (unknown origin)
[32] = Toxicity in BALB/c mouse xenografted with human PC-3 cells assessed as change in liver morphology at 5 to 10 mg/kg, ip administered every 4 days for 20 days by H and E staining based inverted microscopic assay; type: organism-based; conditions: in vivo, 480 h, dose 5-10 mg/kg, time 20 day
PC-3M-1E8 = assay: Cytotoxicity against human PC-3M-1E8 cells assessed as inhibition of cell viability incubated for 48 hrs by MTT assay; type: functional, cell-based
[33] = AUC in Sprague-Dawley rat at 1.5 mg/kg, po measured upto 24 hrs by LC-MS/MS analysis; type: ADME, organism-based; parameters: dose 1.5 mg/kg, time < 24 hrs, route po; conditions: in vivo
DU-145 = assay: Cytotoxicity against human DU-145 cells assessed as inhibition of cell viability incubated for 48 hrs by MTT assay; type: functional, cell-based
[34] = target: STE20-like serine/threonine-protein kinase (Homo sapiens, UniProt Q9H2G2); assay: Inhibition of SLK (unknown origin)

Phosphatidylinositol 4,5-bisphosphate 3-kinase catalytic subunit alpha isoform, sequence (P42336 whole entry, canonical isoform): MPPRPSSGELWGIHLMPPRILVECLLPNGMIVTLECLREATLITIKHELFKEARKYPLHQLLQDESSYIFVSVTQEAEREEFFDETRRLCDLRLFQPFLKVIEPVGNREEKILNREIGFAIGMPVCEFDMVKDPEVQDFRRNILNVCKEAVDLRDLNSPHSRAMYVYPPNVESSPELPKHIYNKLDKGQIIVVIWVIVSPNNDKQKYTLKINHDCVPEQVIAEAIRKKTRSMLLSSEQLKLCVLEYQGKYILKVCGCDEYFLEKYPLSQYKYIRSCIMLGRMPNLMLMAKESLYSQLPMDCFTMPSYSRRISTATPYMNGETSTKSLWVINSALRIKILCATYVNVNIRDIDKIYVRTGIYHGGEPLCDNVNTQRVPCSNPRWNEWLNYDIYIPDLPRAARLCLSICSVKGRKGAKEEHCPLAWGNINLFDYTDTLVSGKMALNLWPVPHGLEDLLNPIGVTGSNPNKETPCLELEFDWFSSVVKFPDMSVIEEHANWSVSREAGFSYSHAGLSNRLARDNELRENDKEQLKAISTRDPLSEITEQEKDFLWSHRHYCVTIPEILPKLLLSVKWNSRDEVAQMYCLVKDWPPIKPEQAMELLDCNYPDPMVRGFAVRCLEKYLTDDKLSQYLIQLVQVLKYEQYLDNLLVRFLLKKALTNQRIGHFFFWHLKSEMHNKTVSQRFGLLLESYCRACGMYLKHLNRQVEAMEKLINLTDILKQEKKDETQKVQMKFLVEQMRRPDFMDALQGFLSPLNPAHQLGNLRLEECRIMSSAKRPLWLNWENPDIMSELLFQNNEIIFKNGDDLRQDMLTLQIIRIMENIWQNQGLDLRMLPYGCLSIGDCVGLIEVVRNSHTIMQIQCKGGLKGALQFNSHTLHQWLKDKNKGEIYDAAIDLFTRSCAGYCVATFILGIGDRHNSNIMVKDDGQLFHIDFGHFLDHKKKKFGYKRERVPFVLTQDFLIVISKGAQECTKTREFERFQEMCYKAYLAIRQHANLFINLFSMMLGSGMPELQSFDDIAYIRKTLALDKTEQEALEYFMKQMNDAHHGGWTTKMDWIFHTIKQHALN
Cyclin-dependent kinase 8, sequence (P49336 whole entry): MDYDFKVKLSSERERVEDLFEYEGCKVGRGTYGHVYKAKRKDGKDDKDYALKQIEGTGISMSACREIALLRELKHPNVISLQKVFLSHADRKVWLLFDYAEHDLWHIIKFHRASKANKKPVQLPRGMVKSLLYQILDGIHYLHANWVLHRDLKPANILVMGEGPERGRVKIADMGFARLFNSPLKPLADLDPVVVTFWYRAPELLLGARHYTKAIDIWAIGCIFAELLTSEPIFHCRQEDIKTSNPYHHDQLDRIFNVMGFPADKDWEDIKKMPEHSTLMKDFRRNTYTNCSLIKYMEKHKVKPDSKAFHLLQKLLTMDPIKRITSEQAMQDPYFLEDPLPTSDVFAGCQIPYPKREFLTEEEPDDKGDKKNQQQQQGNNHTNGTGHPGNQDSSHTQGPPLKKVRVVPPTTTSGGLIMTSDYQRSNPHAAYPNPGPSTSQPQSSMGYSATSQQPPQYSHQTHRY
Epidermal growth factor receptor, sequence (P00533 whole entry): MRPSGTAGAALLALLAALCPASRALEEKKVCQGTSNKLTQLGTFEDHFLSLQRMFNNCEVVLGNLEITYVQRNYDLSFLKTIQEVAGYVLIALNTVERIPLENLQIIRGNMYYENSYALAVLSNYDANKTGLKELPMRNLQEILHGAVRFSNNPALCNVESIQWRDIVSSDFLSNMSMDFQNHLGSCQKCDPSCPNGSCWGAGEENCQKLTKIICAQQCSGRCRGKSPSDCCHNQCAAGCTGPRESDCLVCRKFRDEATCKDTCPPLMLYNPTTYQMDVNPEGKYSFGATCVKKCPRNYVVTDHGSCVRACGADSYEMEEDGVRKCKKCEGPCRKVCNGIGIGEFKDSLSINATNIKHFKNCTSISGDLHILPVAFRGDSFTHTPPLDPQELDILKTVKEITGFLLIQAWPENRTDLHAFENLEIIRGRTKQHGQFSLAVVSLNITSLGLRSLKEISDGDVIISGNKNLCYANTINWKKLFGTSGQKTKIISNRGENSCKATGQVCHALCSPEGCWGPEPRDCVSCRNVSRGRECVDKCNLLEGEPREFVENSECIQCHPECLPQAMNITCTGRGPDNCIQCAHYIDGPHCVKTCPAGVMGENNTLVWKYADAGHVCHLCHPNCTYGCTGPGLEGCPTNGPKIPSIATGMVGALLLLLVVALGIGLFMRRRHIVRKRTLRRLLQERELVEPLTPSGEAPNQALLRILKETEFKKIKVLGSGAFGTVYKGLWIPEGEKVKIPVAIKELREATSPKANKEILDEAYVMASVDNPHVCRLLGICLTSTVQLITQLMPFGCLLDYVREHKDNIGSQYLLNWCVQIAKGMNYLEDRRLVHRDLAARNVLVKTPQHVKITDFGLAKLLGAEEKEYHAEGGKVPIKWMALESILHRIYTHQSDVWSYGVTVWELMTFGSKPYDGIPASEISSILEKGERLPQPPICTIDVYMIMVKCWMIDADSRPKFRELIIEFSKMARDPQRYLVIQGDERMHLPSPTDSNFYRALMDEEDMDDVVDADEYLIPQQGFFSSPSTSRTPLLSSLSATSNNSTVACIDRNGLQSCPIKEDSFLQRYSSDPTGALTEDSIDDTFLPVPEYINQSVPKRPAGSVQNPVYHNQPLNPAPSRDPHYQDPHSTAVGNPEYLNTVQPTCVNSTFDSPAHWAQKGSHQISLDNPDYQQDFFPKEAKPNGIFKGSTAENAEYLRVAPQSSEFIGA
Tyrosine-protein kinase Lck, sequence (P06239 whole entry): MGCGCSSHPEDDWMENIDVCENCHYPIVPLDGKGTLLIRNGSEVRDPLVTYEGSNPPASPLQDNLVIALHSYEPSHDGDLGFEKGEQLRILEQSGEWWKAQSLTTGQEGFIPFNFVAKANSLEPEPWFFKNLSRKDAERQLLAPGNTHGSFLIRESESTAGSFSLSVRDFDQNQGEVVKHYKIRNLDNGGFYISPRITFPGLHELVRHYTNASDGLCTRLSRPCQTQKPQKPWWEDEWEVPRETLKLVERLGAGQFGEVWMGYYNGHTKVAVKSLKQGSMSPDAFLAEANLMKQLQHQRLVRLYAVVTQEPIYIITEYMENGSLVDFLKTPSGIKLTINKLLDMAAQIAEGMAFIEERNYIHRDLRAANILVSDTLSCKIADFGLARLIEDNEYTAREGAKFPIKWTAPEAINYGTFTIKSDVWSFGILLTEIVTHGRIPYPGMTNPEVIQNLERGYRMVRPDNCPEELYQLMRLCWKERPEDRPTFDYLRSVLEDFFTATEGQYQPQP
Tyrosine-protein kinase Fgr, sequence (P09769 whole entry): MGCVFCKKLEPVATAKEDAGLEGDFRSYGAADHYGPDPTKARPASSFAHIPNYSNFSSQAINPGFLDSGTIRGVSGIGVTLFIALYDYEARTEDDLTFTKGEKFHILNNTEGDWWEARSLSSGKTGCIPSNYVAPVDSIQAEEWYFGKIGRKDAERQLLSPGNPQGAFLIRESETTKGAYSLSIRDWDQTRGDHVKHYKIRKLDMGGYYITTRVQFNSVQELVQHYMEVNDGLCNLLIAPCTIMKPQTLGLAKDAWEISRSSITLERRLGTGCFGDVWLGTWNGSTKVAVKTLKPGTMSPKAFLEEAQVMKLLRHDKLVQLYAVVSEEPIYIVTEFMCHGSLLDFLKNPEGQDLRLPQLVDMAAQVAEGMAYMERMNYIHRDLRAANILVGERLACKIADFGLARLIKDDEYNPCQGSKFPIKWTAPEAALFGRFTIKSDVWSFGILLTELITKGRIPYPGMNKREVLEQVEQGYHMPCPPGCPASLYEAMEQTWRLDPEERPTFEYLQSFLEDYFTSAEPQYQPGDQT
Activin receptor type-1, sequence (Q04771 whole entry): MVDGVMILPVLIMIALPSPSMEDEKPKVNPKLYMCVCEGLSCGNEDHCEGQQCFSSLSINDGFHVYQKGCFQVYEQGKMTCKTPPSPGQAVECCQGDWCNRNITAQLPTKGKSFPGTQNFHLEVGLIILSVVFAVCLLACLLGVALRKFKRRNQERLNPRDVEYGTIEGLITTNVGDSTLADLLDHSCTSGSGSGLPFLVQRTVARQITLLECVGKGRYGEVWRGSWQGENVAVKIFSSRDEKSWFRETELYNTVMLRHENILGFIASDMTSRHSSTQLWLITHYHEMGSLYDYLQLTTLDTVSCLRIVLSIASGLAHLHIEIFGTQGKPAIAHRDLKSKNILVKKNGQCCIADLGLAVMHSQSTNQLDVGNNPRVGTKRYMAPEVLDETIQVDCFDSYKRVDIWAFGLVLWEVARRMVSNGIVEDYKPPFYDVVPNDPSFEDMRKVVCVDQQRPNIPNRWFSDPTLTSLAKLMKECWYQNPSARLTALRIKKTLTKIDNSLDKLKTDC
RAC-beta serine/threonine-protein kinase, sequence (P31751 whole entry): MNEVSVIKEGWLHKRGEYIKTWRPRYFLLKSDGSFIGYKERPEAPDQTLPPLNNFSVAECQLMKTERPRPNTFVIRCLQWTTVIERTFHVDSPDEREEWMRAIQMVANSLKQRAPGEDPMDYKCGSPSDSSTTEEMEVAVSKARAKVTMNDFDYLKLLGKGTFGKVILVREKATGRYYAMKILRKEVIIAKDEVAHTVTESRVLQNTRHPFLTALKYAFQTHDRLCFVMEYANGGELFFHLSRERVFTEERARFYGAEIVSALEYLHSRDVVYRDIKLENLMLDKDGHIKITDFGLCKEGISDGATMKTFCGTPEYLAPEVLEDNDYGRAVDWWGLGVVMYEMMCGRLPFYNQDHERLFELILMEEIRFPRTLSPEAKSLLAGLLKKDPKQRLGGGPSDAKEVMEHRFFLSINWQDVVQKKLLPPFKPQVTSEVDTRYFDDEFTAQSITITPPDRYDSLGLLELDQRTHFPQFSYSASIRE

inhibition (Tubulin (Homo sapiens) [1]): Dose-Dependent Effect | IC50 [4]: > 10 µM | IC50 (Activin receptor type-1): > 10 µM | IC50 (Neuropilin-2): > 10 µM | IC50 [7]: > 10 µM | IC50 [8]: > 10 µM | Tmax [10]: 30 min | IC50 [11]: > 10 µM | IC50 [12]: > 10 µM | IC50 [13]: > 10 µM | IC50 [15]: > 10 µM | IC50 [19]: > 10 µM | inhibition (Tubulin (Homo sapiens) [20]): Active | Cmax [22]: 1330 ng/mL | IC50 [23]: > 10 µM | IC50 [26]: > 10 µM | IC50 [28]: > 10 µM | IC50 [29]: > 10 µM | IC50 [30]: > 10 µM | IC50 [31]: > 10 µM | AUC at 24 h [33]: 4300 ng·h/mL | IC50 [34]: > 10 µM
Compound: COc1ccc(/C=C\c2cc(OC)c(OC)c(OC)c2)cc1NC(=O)CCC(=O)N[C@@H](CCCNC(=N)N)C(=O)O
Activity [2]: Non-Toxic | Activity (PC-3 [3]): 8.96% | Activity (PC-3 [5]): Active | Activity (PC-3 [6]): 93.57% | Activity (PC-3 [9]): Active | Activity (PC-3M): Active | Activity (PC-3 [14]): 0.083% | Activity (PC-3 [16]): 1.84% | Activity (PC-3 [17]): Dose-Dependent Effect | viability at 2.5 µM (PC-3 [18]): 89.3% | Activity (HUVEC): Active | Activity (PC-3 [21]): Active | Activity (PC-3 [24]): 4.49% | Activity (PC-3 [25]): Active | Activity (VCaP): Active | Activity (PC-3 [27]): Active | Activity [32]: Non-Toxic | Activity (PC-3M-1E8): Active | Activity (DU-145): Active
